According to patent publication US6977254B2, “Hydroxy cyclohexenyl phenyl carboxamides tocolytic oxytocin receptor antagonists” (Wyeth, priority 2001, dated 2005):

Biological target: T1, human V2 vasopressin receptor subtype (Homo sapiens, UniProt P30518)
T1 construct: host or cells: CHO cells, stably transfected (pZeoSV vector); membranes
Experiment: Vasopressin binding in CHO cell membranes expressing human vasopressin V2 subtype receptors ([3H]arginine vasopressin)
Details: for IC50: value in parentheses; for inhibition at 0.1 µM / V2 % inhibition @ 100 nM: 100 nM, value without parentheses
Description: Vasopressin Binding in Chinese Hamster Ovary Cell Membranes Expressing Human Vasopressin V2 Subtype Receptors
Chinese Hamster Ovary (CHO) cells stably transfected with the human V2 subtype receptors were obtained from M. Thibonnier, Case Western Reserve University School of Medicine, Cleveland, Ohio.
A. Passaging and Amplification of Cells:
CHO cells transfected with the human vasopressin V2 subtype receptors obtained from M. Thibonnier (pZeoSV vector) are allowed to grow to confluency (approx. >90%) in T-150 flasks under sterile conditions, in a cell culture medium of F-12 Nutrient Mixture (HAM) with L-glutamine (Gibco Cat. #11765-054) containing 15 mM HEPES (Gibco Cat. #15630-080), 1% antibiotic/antimycotic (add 5 mL 100×, Gibco Cat. #15240-062 per 500 mL F-12), 250 μg/mL Zeocin (add 1.25 mL of 100 mg/mL Invitrogen R-250-01 per 500 mL F-12) and 10% Fetal Bovine Serum (Qualified, heat inactivated, Gibco Cat. #16140-063). The medium is removed by aspiration and the cells washed with 10 mL of Hank's Balanced Salt solution (Gibco Cat. #14175-095). The salt solution is removed by aspiration and the cells trypsinized with 5 mL of trypsin-EDTA (0.05% trypsin, 0.53 mM EDTA-4Na, Gibco Cat. #25300-070) for 1 min. The trypsin is removed by aspiration and the cells dislodged by tapping. Cell Culture medium (e.g. 30 mL for 1:30 split) is immediately added and mixed well to inactivate trypsin. 1 mL of detached cells is added to new culture flasks containing fresh Cell Culture medium (e.g. into 25 mL per T-150 flask), and mixed gently. The cells are incubated at 37° C. in 5% CO2. The medium is changed at 3 to 4 day interval (or as appropriate). The cells grow to confluency (approx. >75%-95%) within 7-8 days. All steps are done under sterile conditions.
The cells are washed twice gently with Hank's Balanced Salt solution (e.g. use 10 mL per T-150 flask). The excess solution is removed and the cells bathed for 15-30 min. in an enzyme-free Cell Dissociation Buffer (e.g. use 8 mL Hank's Based, Gibco Cat. #13150-016 per T-150 flask) until cells are loosened. The contents are transferred to centrifuge tubes (50 mL size) kept in ice bath. All subsequent steps are done at 4° C. The tubes are centrifuged at 300×g for 15 min (1380 rpm on SORVAL, Model RT6000D, using rotor for 50 mL tubes). The supernatant is discarded and the cells suspended in homogeneizing buffer(10 mM Tris-HCl containing 0.25 M sucrose and 1 mM EDTA, pH 7.4) ensuring that the volume of the buffer is about ten times the volume of the cell pellet. The cells are pooled into a centrifuge tube (50 mL) and homogenized with Polytron at setting 6 for 10 sec. The homogenate is transferred into a Potter-Elvjehm homogeneizer and homogenized with 3 strokes. The homogenate is centrifuged at 1500×g for 60 min at 4° C. (3100 rpm using SORVAL, model RT6000D, using rotor for 50 mL tubes). The pellet is discarded. The supernatant is centrifuged at 100,000×g for 60 min. at 4° C. (Beckman L8-80M ultracentrifuge; spin at 37,500 rpm with rotor type 70 Ti for 50 mL tubes; 38,000 rpm with type 80Ti for 15 mL tubes; or 35,800 rpm with rotor type 45Ti). The supernantant is discarded and the pellet suspended in 3 to 4 mL of Tris buffer (50 mM TRIS-HCl, pH 7.4). The protein content is estimated by the Bradford or Lowry method. The volume of the membrane suspension is adjusted with the membrane buffer (50 mM Tris-HCl containing 0.1% BSA and 0.1 mM PMSF) to give 3.0 mg/mL (or as appropriate) of protein. The membranes are aliquoted and stored at −70° C.
C. Radioligand Binding Assay:
In wells of a 96-well format microtiter plate, is added 90, 110 or 130 μL (to make up a final volume of 200 μL) of assay buffer containing 50 mM of Tris-HCl (pH 7.4), […], 1 mg % aprotinin, 1 mg % leupeptin, 2 mg % 1,10-phenanthroline, 10 mg % trypsin inhibitor, and 0.1 mM PMSF. The inhibitors are added on the day of the experiment. […]

T1 sequence (P30518 whole entry): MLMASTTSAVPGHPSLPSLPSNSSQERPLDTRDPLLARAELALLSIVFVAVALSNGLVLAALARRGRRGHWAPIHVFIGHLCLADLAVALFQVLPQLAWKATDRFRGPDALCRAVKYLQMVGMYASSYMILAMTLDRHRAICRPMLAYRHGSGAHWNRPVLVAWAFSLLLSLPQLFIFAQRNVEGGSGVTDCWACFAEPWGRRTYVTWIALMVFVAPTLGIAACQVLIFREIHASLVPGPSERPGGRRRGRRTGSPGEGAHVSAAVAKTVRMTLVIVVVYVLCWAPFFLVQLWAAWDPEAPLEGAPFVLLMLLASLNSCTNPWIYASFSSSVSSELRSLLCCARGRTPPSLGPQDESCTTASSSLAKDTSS

IC50 | inhibition at 0.1 µM | Structure (SMILES) | further results
 | 15% | Cc1cc(C(=O)N2Cc3ccc(C(=O)O)n3Cc3ccccc32)ccc1C1=CCCCC1 [Example 5E, 10-(4-Cyclohex-1-en-1-yl-3-methyl-benzoyl)-10,11-dihydro-5H-pyrrolo[2,1-c][1,4]benzodiazepine-3-carboxylic acid] | 
2110 nM |  | Cc1cc(C(=O)N2Cc3ccc(C(=O)N(C)C[C@H](O)[C@@H](O)[C@H](O)[C@H](O)CO)n3Cc3ccccc32)ccc1C1=CCCCC1 [Example 5] | 
558 nM |  | Cc1cc(C(=O)N2Cc3ccc(C(=O)N(C)C[C@H](O)[C@H]4OC(=O)O[C@@H]4[C@H](O)CO)n3Cc3ccccc32)ccc1C1=CCCCC1 [Example 6, 10-(4-Cyclohex-1-en-1-yl-3-methylbenzoyl)-N-((2S)-2-{(4R,5R)-5-[(1R)-1,2-dihydroxyethyl]-2-oxo-1,3-dioxolan-4-yl}-2-hydroxyethyl)-N-methyl-10,11-dihydro-5H-pyrrolo[2,1-c][1,4]benzodiazepine-3-carboxamide] | 
 | 14% | Cc1cc(C(=O)N2Cc3ccc(C(=O)N(C)C[C@@H]4OC(=O)O[C@H]4[C@H](O)[C@H]4COC(=O)O4)n3Cc3ccccc32)ccc1C1=CCCCC1 [Example 7, 10-(4-Cyclohex-1-en-1-yl-3-methylbenzoyl)-N-[((4S,5S)-5-{(R)-hydroxy[(4R)-2-oxo-1,3-dioxolan-4-yl]methyl}-2-oxo-1,3-dioxolan-4-yl)methyl]-N-methyl-10,11-dihydro-5H-pyrrolo[2,1-c][1,4]benzodiazepine-3-carboxamide] | 
 | 11% | CCOC(=O)[C@H](Cc1ccc(O)cc1)NC(=O)c1ccc2n1Cc1ccccc1N(C(=O)c1ccc(C3=CCCCC3)c(C)c1)C2 [Example 9, (2S)-2-{[10-(4-Cyclohex-1-en-1-yl-3-methyl-benzoyl)-10,11-dihydro-5H-pyrrolo[2,1-c][1,4]benzodiazepine-3-carbonyl]-amino}-3-(4-hydroxy-phenyl)-propionic acid ethyl ester] | 
 | 10% | COC(=O)[C@H](CO)NC(=O)c1ccc2n1Cc1ccccc1N(C(=O)c1ccc(C3=CCCCC3)c(C)c1)C2 [Example 11, (2S)-2-{[10-(4-Cyclohex-1-en-1-yl-3-methyl-benzoyl)-10,11-dihydro-5H-pyrrolo[2,1-c][1,4]benzodiazepine-3-carbonyl]-amino}-3-hydroxy-propionic acid methyl ester] | 
 | 11% | Cc1cc(C(=O)N2Cc3ccc(C(=O)N[C@H](CO)C(=O)O)n3Cc3ccccc32)ccc1C1=CCCCC1 [Example 14, (2R)-2-{[10-(4-Cyclohex-1-en-1-yl-3-methyl-benzoyl)-10,11-dihydro-5H-pyrrolo[2,1-c][1,4]benzodiazepine-3-carbonyl]-amino}-3-hydroxy-propionic acid] | 
 | 40% | Cc1cc(C(=O)N2Cc3ccc(C(=O)O)n3Cc3ccccc32)ccc1C1=CCCc2ccccc21 [Example 15B, 10-[4-(3,4-Dihydro-naphthalen-1-yl)-3-methyl-benzoyl]-10,11-dihydro-5H-pyrrolo[2,1-c][1,4]benzodiazepine-3-carboxylic acid] | 

The remaining lines, values behind:

Structure (SMILES) | IC50 | inhibition at 0.1 µM | further results
COc1cc(C2=CCCCC2)c(Cl)cc1C(=O)N1Cc2ccc(C(=O)N(C)C[C@H](O)[C@@H](O)[C@H](O)[C@H](O)CO)n2Cc2ccccc21 [Example 1, 1-[[[10-[5-Chloro-4-(1-cyclohex-1-en-1-yl)-2-methoxybenzoyl]-10,11-dihydro-5H-pyrrolo[2,1-c][1,4]benzodiazepin-3-yl]carbonyl]methylamino]-1-deoxy-D-glucitol] | 1560 nM |  | 
COc1cc(C2=CCCCC2)c(Cl)cc1C(=O)N1Cc2ccc(C(=O)O)n2Cc2ccccc21 [Example 1G, 10-(5-Chloro-4-cyclohex-1-en-1-yl-2-methoxybenzoyl)-10,11-dihydro-5H-pyrrolo[2,1-c][1,4]benzodiazepine-3-carboxylic acid] |  | 4% | 
COC[C@@H](OC)[C@@H](OC)[C@H](OC)[C@H](CN(C)C(=O)c1ccc2n1Cc1ccccc1N(C(=O)c1cc(Cl)c(C3=CCCCC3)cc1OC)C2)OC [Example 2, 10-(5-Chloro-4-cyclohex-1-en-1-yl-2-methoxybenzoyl)-N-methyl-N-[(2S,3R,4R,5R)-2,3,4,5,6-pentamethoxyhexyl]-10,11-dihydro-5H-pyrrolo[2,1-c][1,4]benzodiazepine-3-carboxamide] | 4590 nM |  | 
COc1cc(C2=CCCCC2)c(Cl)cc1C(=O)N1Cc2ccc(C(=O)N(C)C[C@@H]3OC(=O)O[C@H]3[C@H](O)[C@H]3COC(=O)O3)n2Cc2ccccc21 [Example 3, 10-(5-Chloro-4-cyclohex-1-en-1-yl-2-methoxybenzoyl)-N-[((4S,5S)-5-{(R)-hydroxy[(4R)-2-oxo-1,3-dioxolan-4-yl]methyl}-2-oxo-1,3-dioxolan-4-yl)methyl]-N-methyl-10,11-dihydro-5H-pyrrolo[2,1-c][1,4]benzodiazepine-3-carboxamide] | 2620 nM |  | 
COc1cc(C2=CCCCC2)c(Cl)cc1C(=O)N1Cc2ccc(C(=O)N(C)CC(O)CO)n2Cc2ccccc21 (stereo not shown) [Example 4, 10-(5-Chloro-4-cyclohex-1-en-1-yl-2-methoxybenzoyl)-N-(2,3-dihydroxypropyl)-N-methyl-10,11-dihydro-5H-pyrrolo[2,1-c][1,4]benzodiazepine-3-carboxamide] | 1490 nM |  | 
Cc1cc(C(=O)N2Cc3ccc(C(=O)C(Cl)(Cl)Cl)n3Cc3ccccc32)ccc1C1=CCCCC1 [Example 5D, 2,2,2-Trichloro-1-[10-(4-cyclohex-1-en-1-yl-3-methyl-benzoyl)-10,11-dihydro-5H-pyrrolo[2,1-c][1,4]benzodiazepin-3-yl]-methanone] |  |  | V2 % inhibition @ 100 nM: 1%
COC[C@@H](OC)[C@@H](OC)[C@H](OC)[C@H](CN(C)C(=O)c1ccc2n1Cc1ccccc1N(C(=O)c1ccc(C3=CCCCC3)c(C)c1)C2)OC [Example 8, 10-(4-Cyclohex-1-en-1-yl-3-methylbenzoyl)-N-methyl-N-[(2S,3R,4R,5R)-2,3,4,5,6-pentamethoxyhexyl]-10,11-dihydro-5H-pyrrolo[2,1-c][1,4]benzodiazepine-3-carboxamide] | > 3000 nM |  | 
Cc1cc(C(=O)N2Cc3ccc(C(=O)N[C@@H](Cc4ccc(O)cc4)C(=O)O)n3Cc3ccccc32)ccc1C1=CCCCC1 [Example 10] |  |  | V2 % inhibition @ 100 nM: 15%
COC(=O)[C@@H](CO)NC(=O)c1ccc2n1Cc1ccccc1N(C(=O)c1ccc(C3=CCCCC3)c(C)c1)C2 [Example 12, (2R)-2-{[10-(4-Cyclohex-1-en-1-yl-3-methyl-benzoyl)-10,11-dihydro-5H-pyrrolo[2,1-c][1,4]benzodiazepine-3-carbonyl]-amino}-3-hydroxy-propionic acid methyl ester] |  | 9% | 
Cc1cc(C(=O)N2Cc3ccc(C(=O)N[C@@H](CO)C(=O)O)n3Cc3ccccc32)ccc1C1=CCCCC1 [Example 13, (2S)-2-{[10-(4-Cyclohex-1-en-1-yl-3-methyl-benzoyl)-10,11-dihydro-5H-pyrrolo[2,1-c][1,4]benzodiazepine-3-carbonyl]-amino}-3-hydroxy-propionic acid] |  | 9% | 
Cc1cc(C(=O)N2Cc3ccc(C(=O)N(C)C[C@H](O)[C@@H](O)[C@H](O)[C@H](O)CO)n3Cc3ccccc32)ccc1C1=CCCc2ccccc21 [Example 15] | 121 nM |  | 
